Patent publication US7880007B2, “Bicyclic substituted phenyl piperidine modulators of muscarinic receptors” (Vertex Pharmaceuticals Incorporated, priority 2004, dated 2011)

Key:
Format in all cases: cell-based
M4 muscarinic receptor = target: T1, M4 muscarinic receptor (Homo sapiens, UniProt P08173); test: Functional mobilization of intracellular calcium (FLIPR), M4-CHO cells; details: for Emax: 100% efficacy = maximum response obtained with the Carbachol control; for M4 Activity: M4-CHO cells, calcium mobilization (FLIPR)
T1 construct: expressed in transfected cells; host or cells: CHO (M4-CHO)
T1 sequence (P08173 1-479): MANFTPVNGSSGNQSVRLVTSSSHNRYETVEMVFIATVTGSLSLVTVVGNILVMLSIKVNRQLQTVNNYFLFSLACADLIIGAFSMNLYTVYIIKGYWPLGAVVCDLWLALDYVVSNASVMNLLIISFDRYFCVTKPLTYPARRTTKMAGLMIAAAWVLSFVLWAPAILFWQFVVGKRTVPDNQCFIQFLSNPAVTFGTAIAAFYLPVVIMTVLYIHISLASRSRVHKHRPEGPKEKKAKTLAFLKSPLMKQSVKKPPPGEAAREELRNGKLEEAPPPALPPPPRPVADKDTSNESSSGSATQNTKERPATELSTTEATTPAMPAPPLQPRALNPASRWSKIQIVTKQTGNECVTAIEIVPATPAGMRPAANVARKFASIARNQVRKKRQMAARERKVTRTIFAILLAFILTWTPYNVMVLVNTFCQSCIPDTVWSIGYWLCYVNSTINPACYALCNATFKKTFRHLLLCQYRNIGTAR
Procedure, shortened: (§1)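 FLIPR fluorescence (ex 488, em 540 nm) recorded 60 sec after compound addition to dye-loaded CHO cells. Agonist mode: compound alone. Antagonist mode: 15 min compound pre-incubation, then carbachol at EC80, or co-application. Efficacy expressed as % of maximal carbachol response.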

M3 muscarinic receptor = target: T2, M3 muscarinic receptor (Homo sapiens, UniProt P20309); test: Functional mobilization of intracellular calcium (FLIPR), M3-CHO cells; details: for Emax: 100% efficacy = maximum response obtained with the Carbachol control; for M3 Activity: M3-CHO cells, calcium mobilization (FLIPR)
T2 construct: expressed in transfected cells; host or cells: CHO (M3-CHO)
Procedure, shortened: as §1

M2 muscarinic receptor = target: T3, M2 muscarinic receptor (Homo sapiens, UniProt P08172); test: Functional mobilization of intracellular calcium (FLIPR), M2-CHO cells; details: for Emax: 100% efficacy = maximum response obtained with the Carbachol control; for M2 Activity: M2-CHO cells, calcium mobilization (FLIPR)
T3 construct: expressed in transfected cells; host or cells: CHO (M2-CHO)
T3 sequence (P08172 1-466): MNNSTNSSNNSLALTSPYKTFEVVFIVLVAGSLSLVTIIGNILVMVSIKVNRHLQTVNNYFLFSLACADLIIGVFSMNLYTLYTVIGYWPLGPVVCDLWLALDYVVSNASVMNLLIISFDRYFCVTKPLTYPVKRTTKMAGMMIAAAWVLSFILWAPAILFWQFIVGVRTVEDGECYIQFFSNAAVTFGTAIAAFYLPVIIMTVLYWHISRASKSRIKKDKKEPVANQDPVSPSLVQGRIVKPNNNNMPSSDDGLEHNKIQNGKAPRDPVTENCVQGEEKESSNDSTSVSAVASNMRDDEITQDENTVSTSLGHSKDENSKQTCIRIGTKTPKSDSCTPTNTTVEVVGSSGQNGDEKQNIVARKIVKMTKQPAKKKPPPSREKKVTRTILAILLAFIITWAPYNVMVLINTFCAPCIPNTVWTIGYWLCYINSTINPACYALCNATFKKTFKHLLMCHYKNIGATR
Procedure, shortened: as §1

M1 muscarinic receptor = target: T4, M1 muscarinic receptor (Homo sapiens, UniProt P11229); test: Functional mobilization of intracellular calcium (FLIPR), M1-CHO cells; details: for Emax: 100% efficacy = maximum response obtained with the Carbachol control; for M1 Activity: M1-CHO cells, calcium mobilization (FLIPR)
T4 construct: expressed in transfected cells; host or cells: CHO (M1-CHO)
T4 sequence (P11229 1-460): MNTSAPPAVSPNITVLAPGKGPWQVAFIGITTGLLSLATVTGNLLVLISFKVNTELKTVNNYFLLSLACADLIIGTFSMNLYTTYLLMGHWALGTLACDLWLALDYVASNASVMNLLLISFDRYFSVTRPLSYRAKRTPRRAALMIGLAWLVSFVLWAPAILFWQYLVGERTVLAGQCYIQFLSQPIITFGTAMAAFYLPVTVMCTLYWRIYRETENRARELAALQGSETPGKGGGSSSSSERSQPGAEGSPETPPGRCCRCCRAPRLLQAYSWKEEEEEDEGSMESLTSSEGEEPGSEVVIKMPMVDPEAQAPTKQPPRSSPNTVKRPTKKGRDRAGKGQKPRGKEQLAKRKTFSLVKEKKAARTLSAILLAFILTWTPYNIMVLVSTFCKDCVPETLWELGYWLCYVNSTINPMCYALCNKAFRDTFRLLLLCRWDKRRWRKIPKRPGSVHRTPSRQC
Procedure, shortened: as §1

T2 sequence (P20309 whole entry): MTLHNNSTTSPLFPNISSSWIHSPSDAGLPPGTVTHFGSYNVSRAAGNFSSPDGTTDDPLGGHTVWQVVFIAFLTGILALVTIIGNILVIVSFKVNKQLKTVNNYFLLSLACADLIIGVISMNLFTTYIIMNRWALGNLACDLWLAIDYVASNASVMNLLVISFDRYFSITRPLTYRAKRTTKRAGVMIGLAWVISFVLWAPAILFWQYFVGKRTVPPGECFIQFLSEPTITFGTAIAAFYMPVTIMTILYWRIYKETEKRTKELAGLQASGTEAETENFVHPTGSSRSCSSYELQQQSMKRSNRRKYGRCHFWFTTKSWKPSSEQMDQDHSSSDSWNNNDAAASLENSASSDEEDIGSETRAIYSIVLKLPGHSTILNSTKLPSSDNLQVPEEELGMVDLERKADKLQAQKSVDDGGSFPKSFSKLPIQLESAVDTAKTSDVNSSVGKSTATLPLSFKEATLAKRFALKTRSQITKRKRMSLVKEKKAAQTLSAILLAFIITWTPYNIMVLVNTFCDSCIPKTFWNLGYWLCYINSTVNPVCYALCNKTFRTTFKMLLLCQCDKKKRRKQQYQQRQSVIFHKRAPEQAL

| SMILES | Emax (M4 muscarinic receptor) [%] | Emax (M3 muscarinic receptor) [%] | Emax (M2 muscarinic receptor) [%] | Emax (M1 muscarinic receptor) [%] | M4 Activity (M4 muscarinic receptor) | M3 Activity (M3 muscarinic receptor) | M2 Activity (M2 muscarinic receptor) | M1 Activity (M1 muscarinic receptor) |
| --- | --- | --- | --- | --- | --- | --- | --- | --- |
| COc1c(F)cc(F)cc1C1CCN(C2CC3CCC(C3)C2)CC1 (stereo not shown) [Compound 311] | 25 to 100 | < 25 | < 25 | < 25 | +++ (activity was measured to be less than 1.0 μM) | + (activity was measured to be greater than 5.0 μM) | + (activity was measured to be greater than 5.0 μM) | + (activity was measured to be greater than 5.0 μM) |
| COc1ccc(-c2ccc(C(=O)Nc3nccs3)cc2)cc1C1CCN(C2CC3CCC(C3)C2)CC1 (stereo not shown) [Compound 313] | < 25 | < 25 | < 25 | < 25 | + (activity was measured to be greater than 5.0 μM) | + (activity was measured to be greater than 5.0 μM) | + (activity was measured to be greater than 5.0 μM) | + (activity was measured to be greater than 5.0 μM) |
| COc1ccc(F)cc1C1(F)CCN(C2CCOCC2)CC1 [Compound 314] | 25 to 100 | < 25 | < 25 | < 25 | + (activity was measured to be greater than 5.0 μM) | + (activity was measured to be greater than 5.0 μM) | + (activity was measured to be greater than 5.0 μM) | + (activity was measured to be greater than 5.0 μM) |
| CCOC(=O)N1C2CCC1CC(N1CCC(c3cc(-c4ccc(C#N)cc4)ccc3OC)CC1)C2 (stereo not shown) [Compound 317] | 25 to 100 | < 25 | < 25 | 25 to 100 | ++ (activity was measured to be from 1.0 μM to 5.0 μM) | + (activity was measured to be greater than 5.0 μM) | + (activity was measured to be greater than 5.0 μM) | ++ (activity was measured to be from 1.0 μM to 5.0 μM) |
| COc1ccc(-c2cccc(F)c2F)cc1C1CCN([C@@H]2C[C@H]3CC[C@H]2C3)CC1 [Compound 318] | 25 to 100 | < 25 | < 25 | < 25 | + (activity was measured to be greater than 5.0 μM) | + (activity was measured to be greater than 5.0 μM) | + (activity was measured to be greater than 5.0 μM) | + (activity was measured to be greater than 5.0 μM) |
| CCOC(=O)N1C2CCC1CC(N1CCC(c3cc(OC)cc(F)c3F)CC1)C2 (stereo not shown) [Compound 322] | 25 to 100 | < 25 | < 25 | 25 to 100 | +++ (activity was measured to be less than 1.0 μM) | + (activity was measured to be greater than 5.0 μM) | ++ (activity was measured to be from 1.0 μM to 5.0 μM) | +++ (activity was measured to be less than 1.0 μM) |

Continued, in another order:

| Emax (M4 muscarinic receptor) [%] | Emax (M3 muscarinic receptor) [%] | Emax (M2 muscarinic receptor) [%] | Emax (M1 muscarinic receptor) [%] | SMILES | M4 Activity (M4 muscarinic receptor) | M3 Activity (M3 muscarinic receptor) | M2 Activity (M2 muscarinic receptor) | M1 Activity (M1 muscarinic receptor) |
| --- | --- | --- | --- | --- | --- | --- | --- | --- |
| 25 to 100 | < 25 | < 25 | < 25 | COc1ccccc1C1CCN(CC2CCCCC2)CC1 [Compound 320] | ++ (activity was measured to be from 1.0 μM to 5.0 μM) | + (activity was measured to be greater than 5.0 μM) | + (activity was measured to be greater than 5.0 μM) | + (activity was measured to be greater than 5.0 μM) |
| < 25 | < 25 | < 25 | < 25 | COc1ccc(C(C)=O)cc1C1CCN([C@H]2C[C@H]3CC[C@H]2C3)CC1 [Compound 321] | + (activity was measured to be greater than 5.0 μM) | + (activity was measured to be greater than 5.0 μM) | + (activity was measured to be greater than 5.0 μM) | + (activity was measured to be greater than 5.0 μM) |
